Where “and” joins values, the source holds several entries; their conditions need not be identical. Equal values may be shown once. Read-outs that look alike come from different tables or passages of the source.
Tests used:
AKR1C3 [1] = target: T1, AKR1C3 (Homo sapiens, UniProt P42330); assay: cell-based
T1 sequence (P42330 1-323): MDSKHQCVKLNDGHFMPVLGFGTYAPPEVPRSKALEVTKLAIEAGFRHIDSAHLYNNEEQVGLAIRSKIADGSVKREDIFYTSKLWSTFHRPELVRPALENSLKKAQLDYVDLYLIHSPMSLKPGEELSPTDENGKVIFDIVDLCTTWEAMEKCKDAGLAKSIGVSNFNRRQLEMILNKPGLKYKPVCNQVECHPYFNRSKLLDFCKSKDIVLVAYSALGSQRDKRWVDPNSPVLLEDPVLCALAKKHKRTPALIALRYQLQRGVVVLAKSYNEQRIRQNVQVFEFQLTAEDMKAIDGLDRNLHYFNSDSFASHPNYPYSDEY
Experimental: AKR1C3 expression was checked by Western blot to ensure that the cells over-express AKR1C3. […] Medium was changed to RPMI+1% csFBS without phenol red and maintained in this medium for 3 days to reduce basal hormone levels. […] The data was plotted in SigmaPlot (Systat Software Inc.) and the IC50 values for inhibitors were calculated.
HEK-293 cells stably transfected with AKR1C3 were plated in 24 well plates and were maintained in RPMI+1% csFBS without phenol red for 2 days to reduce the basal steroid levels.

[2] = Liver microsome incubation (HLM Phase I and Phase I + II), LC-MS/MS; assay type: in vitro ADME, human; conditions: for microsomal CLint: human, human liver microsomes
Experimental: Stock solutions of prespective AKR1C3 inhibitors were prepared in DMSO at 5 mM and were incubated with liver microsomes (0.1 mg/mL). Incubations were conducted at 37° C. in a shaking water bath for 10 minutes (microsomes). Incubation durations were selected based on time course study (microsomes) or published literature (recombinant enzymes). Prepared samples were analyzed using LC-MS/MS.

AKR1C3 [3] = target: T1, AKR1C3; assay: Purified AKR1C3 enzyme assay, [14C]-A'dione to testosterone, TLC based; assay type: biochemical; design: GST (N); made in house; host or cells: bacterial culture, IPTG induced (E. coli BL21-DE3 is named only for the crystallography preparation)
Experimental: Perkin Elmer; […] American Radiolabeled Chemicals, St. Louis, Mo.). The reaction was stopped by the addition of 400 μl ethyl acetate, vortexed, and spun for […] at 2000 rpm. The upper layer was transferred to a new tube and air dried. The pellet was resuspended in 25 μl of methanol, spotted on TLC plates and fractionated in TLC chamber with 3:1 chloroform:ethyl acetate. Once the mobile phase reached the top, the plates were dried and exposed to a phosphoimager screen overnight. […] Perkin Elmer) was incubated at 37° C. for 60 min. The reaction was stopped by the addition of 400 μl ethyl acetate, vortexed, and spun for […] at 2000 rpm. The upper layer was transferred to a new tube and air dried. The pellet was resuspended in 25 μl of methanol, spotted on TLC plates and fractionated in TLC chamber with 3:1 chloroform:ethyl acetate. Once the mobile phase reached the top, the plates were dried and exposed to a phosphoimager screen overnight.

ER-beta = target: T2, ER-beta (Homo sapiens, UniProt Q92731); assay: ER-beta transactivation (ERE-LUC luciferase) in HEK-293 cells; assay type: cell-based; conditions: for EC50: agonist mode, drug alone, read-out: Agonist ER-β; for IC50: antagonist mode, in combination with estradiol, read-out: Antagonist ER-β;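 for all read-outs here: HEK-293 cells transiently transfected with an ER-β expression plasmid and ERE-LUC reporter, firefly luciferase read-out normalized to co-transfected Renilla luciferase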
T2 construct: expressed in transfected cells; host or cells: HEK-293

ER-β = ER-β (Homo sapiens, UniProt Q92731); assay: ER-β ligand binding domain competitive binding with [3H]Estradiol
ER-α = target: T3, ER-α (Homo sapiens, UniProt P03372); assay: ER-α ligand binding domain competitive binding with [3H]Estradiol
T3 sequence (P03372 311-547 limits assumed): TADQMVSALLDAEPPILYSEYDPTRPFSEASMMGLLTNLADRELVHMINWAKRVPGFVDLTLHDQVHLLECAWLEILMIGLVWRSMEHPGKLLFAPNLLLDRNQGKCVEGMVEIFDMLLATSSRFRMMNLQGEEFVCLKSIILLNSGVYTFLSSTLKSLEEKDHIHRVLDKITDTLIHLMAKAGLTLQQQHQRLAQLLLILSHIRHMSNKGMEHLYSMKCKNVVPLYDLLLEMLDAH

ER-alpha = target: T4, ER-alpha (Homo sapiens, UniProt P03372); assay: ER-alpha transactivation (ERE-LUC luciferase) in HEK-293 cells; assay type: cell-based; conditions: for EC50: agonist mode, drug alone, read-out: Agonist ER-α; for IC50: antagonist mode, in combination with estradiol, read-out: Antagonist ER-α;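 for all read-outs here: HEK-293 cells co-transfected with an ER-alpha expression plasmid, an ERE-driven firefly luciferase reporter and a CMV Renilla control, with the firefly signal normalized to Renilla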
T4 construct: expressed in transfected cells; host or cells: HEK-293
T4 sequence (P03372 1-595): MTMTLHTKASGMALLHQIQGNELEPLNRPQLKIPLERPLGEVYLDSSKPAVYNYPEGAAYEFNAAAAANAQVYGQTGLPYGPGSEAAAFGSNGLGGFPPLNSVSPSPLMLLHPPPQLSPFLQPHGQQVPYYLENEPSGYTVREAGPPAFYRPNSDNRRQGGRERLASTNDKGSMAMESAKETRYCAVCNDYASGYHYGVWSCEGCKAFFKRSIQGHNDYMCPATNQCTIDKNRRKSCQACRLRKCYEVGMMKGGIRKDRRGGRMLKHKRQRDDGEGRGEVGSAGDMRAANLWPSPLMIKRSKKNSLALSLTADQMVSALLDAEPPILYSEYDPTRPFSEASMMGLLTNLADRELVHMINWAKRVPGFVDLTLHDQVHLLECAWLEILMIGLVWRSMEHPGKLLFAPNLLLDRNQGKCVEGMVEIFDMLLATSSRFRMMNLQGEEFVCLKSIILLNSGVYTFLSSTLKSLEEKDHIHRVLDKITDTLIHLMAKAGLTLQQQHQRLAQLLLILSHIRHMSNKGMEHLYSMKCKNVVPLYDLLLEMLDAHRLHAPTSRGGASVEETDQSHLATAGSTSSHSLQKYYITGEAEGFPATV

[4] = HLM Phase I + II, read-out: HLM Phase I + II CLint
[5] = HLM Phase I, read-out: HLM Phase I CLint
[6] = read-out: % inhibition from control HSD-5 (10 uM)
[7] = 10 μM inhibitor, purified AKR1C3 TLC based enzyme assay, read-out: AKR1C3 inhibition at 10 μM

ER-β, sequence (Q92731 264-498 limits assumed, species assumed): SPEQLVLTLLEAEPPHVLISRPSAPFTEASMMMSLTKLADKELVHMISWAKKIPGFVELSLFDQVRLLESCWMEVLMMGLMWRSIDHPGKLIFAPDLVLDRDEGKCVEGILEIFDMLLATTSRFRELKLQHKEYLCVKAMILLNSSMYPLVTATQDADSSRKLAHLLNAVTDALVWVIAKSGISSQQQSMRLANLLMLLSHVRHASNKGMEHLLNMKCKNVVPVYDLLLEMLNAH
T2 sequence (Q92731 whole entry, species assumed): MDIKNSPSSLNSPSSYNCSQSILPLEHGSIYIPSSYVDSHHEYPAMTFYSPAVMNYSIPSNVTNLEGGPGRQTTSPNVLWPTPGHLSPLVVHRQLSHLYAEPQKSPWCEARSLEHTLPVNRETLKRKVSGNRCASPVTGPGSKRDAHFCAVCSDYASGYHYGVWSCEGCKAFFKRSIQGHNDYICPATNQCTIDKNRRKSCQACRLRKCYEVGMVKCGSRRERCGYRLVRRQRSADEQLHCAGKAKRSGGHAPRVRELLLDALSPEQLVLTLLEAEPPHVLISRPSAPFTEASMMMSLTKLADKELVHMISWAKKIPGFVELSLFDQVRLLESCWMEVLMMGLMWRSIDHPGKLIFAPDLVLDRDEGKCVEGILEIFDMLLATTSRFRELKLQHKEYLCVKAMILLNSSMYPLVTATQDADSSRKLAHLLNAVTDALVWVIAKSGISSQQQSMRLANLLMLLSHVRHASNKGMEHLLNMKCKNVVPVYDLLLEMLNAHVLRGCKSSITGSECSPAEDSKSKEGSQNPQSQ

For `COc1ccc(-c2cn(-c3ccc(O)cc3)c(=O)c3c(O)cc(O)cc23)cc1` [Compound 15g, 6,8-dihydroxy-2-(4-hydroxyphenyl)-4-(4-methoxyphenyl)isoquinolin-1(2H)-one], the IC50 (AKR1C3 [1]) was 4.52 µM, the “HLM Phase I CLint” value ([2]; HLM Phase I) was 35.8 µL/min/mg and the “HLM Phase I T-1/2” value ([2]; HLM Phase I) was 16.5 min and 19.32 min. The “HLM Phase I + II T-1/2” value ([2]; HLM Phase I + II) was 1.6 min, the microsomal CLint [2, 4] was 422 µL/min/mg and the microsomal CLint [2, 5] was 42.1 µL/min/mg. The inhibition at 10 µM (AKR1C3 [3]; [6]) was 40%, the EC50 (ER-beta) was > 10 µM and the IC50 (ER-beta) was 0.0224 µM. It also gave a Ki (ER-β) of 2.77 nM.

With `O=C(O)c1cccc(Nc2ccc(C(F)(F)F)cc2)c1` [DKB-476-065] the IC50 (AKR1C3 [1]) was 0.154 µM.

Compound `O=c1c2ccc(O)cc2c(-c2ccc(O)cc2)cn1-c1ccc(O)cc1` [Compound 6, 6-hydroxy-2,4-bis(4-hydroxyphenyl)isoquinolin-1(2H)-one] has an inhibition at 10 µM (AKR1C3 [3]; [7]) of 0%, an inhibition at 10 µM (AKR1C3 [3]; [6]) of 0% and a Ki (ER-α) of 1420 nM. For the same compound, the EC50 (ER-beta) was > 10 µM, the IC50 (ER-beta) was 1.95 µM and the EC50 (ER-alpha) was > 10 µM. The IC50 (ER-alpha) was > 10 µM and the Ki (ER-β) was 56.2 nM.

`NC(=O)c1cccc(-n2cc(-c3ccc(C(F)(F)F)c(F)c3)c3cc(O)ccc3c2=O)c1` [Compound 214, 3-(4-(3-fluoro-4-(trifluoromethyl)phenyl)-6-hydroxy-1-oxoisoquinolin-2(1H)-yl)benzamide] gave an IC50 (AKR1C3 [1]) of 0.241 µM.

With `COc1ccc(-c2cn(-c3ccc(CO)cc3)c(=O)c3ccc(OC)cc23)cc1` [Compound 10, 2-(4-hydroxymethyl)phenyl-6-methoxy-4-(4-methoxyphenyl)-isoquinolin-1(2H)-one] the inhibition at 10 µM (AKR1C3 [3]; [7]) was 17%, the inhibition at 10 µM (AKR1C3 [3]; [6]) was 17% and the Ki (ER-α) was > 1510 nM. The EC50 (ER-beta) was > 10 µM, the IC50 (ER-beta) was > 10 µM and the EC50 (ER-alpha) was > 10 µM. The IC50 (ER-alpha) was > 10 µM and the Ki (ER-β) was > 2200 nM.

For `COc1ccc(-n2cc(-c3ccc(C(F)(F)F)cc3)c3cc(OC)ccc3c2=O)cc1` [Compound 35, 6-methoxy-2-(4-methoxyphenyl)-4-(4-(trifluoromethyl)phenyl)isoquinolin-1(2H)-one], the inhibition at 10 µM (AKR1C3 [3]; [7]) was 0%, the inhibition at 10 µM (AKR1C3 [3]; [6]) was 0% and the Ki (ER-α) was > 1510 nM. For the same compound, the EC50 (ER-beta) was > 10 µM, the IC50 (ER-beta) was > 10 µM and the EC50 (ER-alpha) was > 10 µM. For the same compound, the IC50 (ER-alpha) was > 10 µM and the Ki (ER-β) was > 2200 nM.

In the case of `O=c1c2ccc(O)cc2c(-c2ccccc2)cn1-c1ccc(O)cc1` [Compound 15a, 6-hydroxy-2-(4-hydroxyphenyl)-4-phenylisoquinolin-1(2H)-one], the IC50 (AKR1C3 [1]) is reported as 16.1 µM, the “HLM Phase I T-1/2” value ([2]; HLM Phase I) is reported as 152.8 min and the “HLM Phase I + II T-1/2” value ([2]; HLM Phase I + II) is reported as 23.3 min. For the same compound, the microsomal CLint [2, 4] was 29.7 µL/min/mg, the microsomal CLint [2, 5] was 4.5 µL/min/mg and the inhibition at 10 µM (AKR1C3 [3]; [6]) was 0%. For the same compound, the EC50 (ER-beta) was > 10 µM, the IC50 (ER-beta) was 0.918 µM and the Ki (ER-β) was 130 nM.

For `CS(=O)(=O)c1ccc(-c2cn(-c3ccc(O)cc3)c(=O)c3ccc(O)cc23)cc1` [Compound 37, 6-hydroxy-2-(4-hydroxyphenyl)-4-(4-(methylsulfonyl)phenyl)isoquinolin-1(2H)-one], the “HLM Phase I T-1/2 (min)” value ([2]; HLM Phase I) was “stable”, the “HLM Phase I + II T-1/2” value ([2]; HLM Phase I + II) was 3.8 min and the microsomal CLint [2, 4] was 183 µL/min/mg. The inhibition at 10 µM (AKR1C3 [3]; [7]) was 45%, the inhibition at 10 µM (AKR1C3 [3]; [6]) was 45% and the EC50 (ER-beta) was > 10 µM. For the same compound, the EC50 (ER-alpha) was > 10 µM and the IC50 (ER-alpha) was > 10 µM.

With `O=c1c2ccc(O)cc2c(-c2ccc(C(F)(F)F)cc2)cn1-c1ccc(F)cc1` [Compound 34, 2-(4-fluorophenyl)-6-hydroxy-4-(4-(trifluoromethyl)phenyl)isoquinolin-1(2H)-one] the inhibition at 10 µM (AKR1C3 [3]; [7]) was 10%, the inhibition at 10 µM (AKR1C3 [3]; [6]) was 10% and the Ki (ER-α) was > 1510 nM. For the same compound, the EC50 (ER-beta) was > 10 µM, the IC50 (ER-beta) was > 10 µM and the EC50 (ER-alpha) was > 10 µM. For the same compound, the IC50 (ER-alpha) was > 10 µM and the Ki (ER-β) was > 2200 nM.
